Converted amounts (≈) assume the structure as drawn. Read-outs that look alike come from different tables or passages of the source.

The thermodynamic solubility is the concentration in solution at equilibrium with solid. A word on the IC50: it is the concentration at which inhibition is half-maximal.

Series [1] can be described thus: Aqueous solubility in PBS (pH 7.4). Format: physicochemical. The following applies: PBS; Table S2; pH 7.4; n = 2; * below lower limit of quantification; read-out: Thermodynamic Solubility @ RT. Here is the method:
(§1) Selected compounds were routinely screened for aqueous solubility in PBS (pH 7.4), transit performance in MDCK-MDR1 cell lines for permeability, and metabolic stability in MLM and HLM as a measure of clearance. The main metabolites and routes of metabolism of 4y were determined in MLM. Assay protocols and additional data are presented in the Supplementary Material (Tables S1–S7). ADME studies reported in this work were performed by WuXi AppTec (Shanghai, China).
(§2) Representative assay protocols have been described in detail. ^1,2

Series [2] addresses T1, Notum (core, 81–451C330S) (Homo sapiens, UniProt Q6P988, C330S).
T1 construct: high-throughput biochemical assay with Notum (81–451C330S) and OPTS as a synthetic fluorescent substrate; made in house
T1 sequence (Q6P988 81-451 C330S): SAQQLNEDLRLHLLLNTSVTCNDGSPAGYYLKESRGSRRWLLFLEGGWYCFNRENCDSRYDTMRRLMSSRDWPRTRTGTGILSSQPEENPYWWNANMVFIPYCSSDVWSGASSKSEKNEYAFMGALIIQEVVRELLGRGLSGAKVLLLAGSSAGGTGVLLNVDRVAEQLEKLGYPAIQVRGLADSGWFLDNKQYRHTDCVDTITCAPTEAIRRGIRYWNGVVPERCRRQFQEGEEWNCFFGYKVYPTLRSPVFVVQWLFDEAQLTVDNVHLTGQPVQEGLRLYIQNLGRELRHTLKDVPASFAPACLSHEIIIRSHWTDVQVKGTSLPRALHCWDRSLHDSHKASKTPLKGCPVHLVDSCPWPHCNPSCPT
The series can be described thus: Notum-OPTS biochemical assay, Notum (81–451C330S). The following applies: for IC50: >10 = 20–50% inhibition @ 10 μM, read-out: Notum IC50; for fold increase in Notum inhibition over 3a: vs 3a, more potent. Here is the method:
Notum inhibitors 3–5 (Table 1, Table 2, Table 3, Table 4) were either purchased or prepared using established synthetic methods from readily available starting materials (Scheme 1). Where necessary, the synthesis of many of these amines (e.g. 6) have been reported previously and full details of their preparation have been included in the Experimental Section. Notum inhibition activity was determined using the standard Notum-OPTS biochemical assay using IC50 values. These values were used to compare relative activities with covalent inhibitors under carefully regulated assay conditions. […] Selected inhibitors were screened for inhibition of Notum activity in a TCF/LEF Reporter (Luciferase) cell line with exogenous WNT3a and Notum, and soaked into Notum crystals to determine their binding modes and evidence of MoA.
Methods have been described in detail.

The nature of series [3]: Stability in mouse liver microsomes. Format: in vitro ADME. On the procedure: as §1, §2
Series [4] can be described thus: Stability in human liver microsomes. Format: in vitro ADME. The note with it: for half-life: human, read-out: HLM Stability t1/2. Here is the method: as §1, §2
[5] abbreviates: Table 4, mean ± s.d. of n = 4–8.
Setting [6] is: mouse, read-out: MLM Stability t1/2.
Where [7] appears, read: Table 2, mean ± s.d. of n = 4–12.

In the case of `O=C1CCC2Cc3ccccc3N12` (centres unmarked) [Compound 5f, 1,2,9,9a-Tetrahydro-3H-pyrrolo[1,2-a]indol-3-one], the solubility (thermodynamic) in series [1] turned out to be 577 µg/mL (≈ 3.33 mM). Besides, the IC50 in series [2] (setting [5]) was 180 ± 20 nM. Further, in series [2], the “fold increase in Notum inhibition over 3a” value is reported as 2 fold. In series [3], the “MLM Stability Cli” value came to 73 µL/min/mg protein. Also, in series [3] (setting [6]), the half-life was determined as 19 min and the half-life at 1 h was 18 min.
In the case of `CC(=O)N1CCc2c1cccc2C(F)(F)F` [Compound 4o, 1-(4-(Trifluoromethyl)indolin-1-yl)ethan-1-one], in series [4], the “HLM Stability Cli” value came out at 900 µL/min/mg protein and the half-life worked out at 1.5 min. Besides, the 50% inhibitory concentration (IC50) in series [2] (setting [7]) was found to be 30 ± 4 nM.
On to `CS(=O)(=O)N1CC2(CC2)c2c(Cl)cccc21` [Compound 5b, 4′-Chloro-1'-(methylsulfonyl)spiro[cyclopropane-1,3′-indoline]], for which the IC50 in series [2] (setting [5]) was 1000 ± 300 nM. Also, the “MLM Stability Cli” value in series [3] amounted to 200 µL/min/mg protein. In series [3] (setting [6]), the half-life turned out to be 7 min.
As to `CC(=O)n1ccc2c(Cl)c(Cl)ccc21` [Compound 5d, 1-(4,5-Dichloro-1H-indol-1-yl)ethan-1-one], in series [1], the solubility (thermodynamic) is less than 0.36 µg/mL. Also, the IC50 in series [2] (setting [5]) was 31 ± 4 nM. For the same compound, the “MLM Stability Cli” value in series [3] is recorded as 1320 µL/min/mg protein. Besides, the half-life in series [3] (setting [6]) turned out to be 1.1 min.
Turning to `CC(=O)N1CC2(CC2)c2ccccc21` [Compound 4d, 1-(Spiro[cyclopropane-1,3′-indolin]-1′-yl)ethan-1-one], the IC50 in series [2] (setting [7]) was found to be 61 ± 12 nM. Moreover, the “MLM Stability Cli” value in series [3] is 360 µL/min/mg protein. Moreover, the half-life in series [3] (setting [6]) stood at 3.8 min.
As to `CC(=O)N1CCc2c(Cl)cccc21` [Compound 4g, 1-(4-Chloroindolin-1-yl)ethan-1-one], in series [4], the “HLM Stability Cli” value turned out to be 640 µL/min/mg protein and the half-life is 2.2 min. In addition, the IC50 in series [2] (setting [7]) amounted to 40 ± 24 nM. In addition, the “fold increase in Notum inhibition over 3a” value in series [2] is reported as 10 fold.
